Measurements reported in ChEMBL document CHEMBL1136335, “Structure elucidation of Sch 538415, a novel acyl carrier protein synthase inhibitor from a microorganism” (Bioorg Med Chem Lett, 2003).
pIC50: −log10 of the molar value.

Experiments:
[1] = In vitro inhibitory activity against bacterial Holo-[acyl-carrier-protein] synthase; design: species or system Staphylococcus aureus
[2] = test system: Staphylococcus aureus; test: Antibacterial activity against Staphylococcus aureus(FDA 209P strain) at a concentration of 5 ug; type: functional

pIC50 [1]: 5.38
Structure (SMILES): Cc1cc(=O)n(C)c2c1C(=O)c1c(C)cc(=O)n(C)c1C2=O [DIAZAANTHRAQUINONE]
Zone of inhibition [2]: 12 mm
